Literature values in patent US10561697B2, “Compositions based on saffron for the prevention and/or treatment of degenerative eye disorders” (Hortus Novus SRL, priority 2014, dated 2020).

How the values were obtained:
[1] = test system: rats affected by the P23H mutation in the rhodopsin gene; conditions: 100 mg/kg
rats exposed to light = conditions: diet added with 0.2% of curcumin

For COc1cc(/C=C/C(=O)CC(=O)/C=C/c2ccc(O)c(OC)c2)ccc1O [curcumin], the “formation of rhodopsin aggregates” value [1] is given as “active in inhibiting the formation of rhodopsin aggregates”, the “morphology of the retina, photoreceptors preservation” value ([1]; transgenic rats) is given as “improvement in the morphology of the retina” and the “onset of retinal oxidative and inflammatory stress” value (rats exposed to light) is given as “reduction in the onset of retinal oxidative and inflammatory stress”.
